Test results published in patent US5064827A, “Polyhydroxybenzyloxpropanolamines” (Du Pont Merck Pharmaceutical Company, priority 1990, dated 1991).

Key:
[1] = target: T1, β-receptor (guinea pig right atria) (Cavia porcellus, UniProt H0W3H1); assay: Beta-blocking activity in vitro, guinea pig right atria (antagonism of isoproterenol-induced rate response); format: cell-based; conditions: 60-minute incubation, 37° C, Furchgott method; for Kb: read-out: pA2 Atria (converted)
T1 construct: from tissue; host or cells: guinea pig right atria
Experimental: Several of the compounds of the present invention were tested for β-blocking activity in vitro using guinea pig right atria and guinea pig tracheal strips mounted in a tissue bath containing oxygenated (95% 02 -5% CO2) Krebs physiological salt solution at 37° C. Each tissue was suspended between a fixed glass rod and a Statham Universal Transducer connected to a Beckman recorder. Atria were allowed to beat spontaneously under a loading tension of approximately 0.5 gm. Intrinsic depressant or stimulant activity was determined for each compound by progressively increasing concentrations in the tissue baths at 60-minute intervals. Tissues were not washed between increments. The maximum concentration showing little or no cardiodepressant activity was chosen for blockade experiments. Changes in rate in response to isoproterenol, a standard β-receptor agonist, were measured in the absence and presence of test compounds. Spiral strips of guinea pig trachea were suspended under 5 gm resting tension and incubated with phentolamine, tropolone and cocaine. Active tension was generated by addition of carbachol (3.0×10^-7 M) and decreases in tension in response to isoproterenol were quantitated. Cumulative concentration-response curves were produced with isoproterenol both before and after 60-minute incubation of test compounds with atria and trachea. Compounds with β-blocking activity shifted concentration-response curves to the right. The blocking potency of test compounds was estimated by computing pA2 values (--log K8) by the method of Furchgott, the Pharmacological Differentiation of Adrenergic Receptors, Ann. N.Y. Acad. Sci., 139:553-570 (1967). […] The degree of cardioselectivity was estimated from the ratio, Kβ trachea/Kβ atria (10^(pA 2^atria-pA 2^trachea)). A ratio greater than one indicates cardioselectivity. Test drugs were dissolved in distilled water and added to the bath (30 mL) in a volume of 10 or 100 μL. All of the test compounds are active β-blockers.

[2] = system: β-receptor (heart rate response to isoproterenol); assay: Duration and potency of beta-blocking action in vivo (3-hour infusion, isoproterenol challenge, pentobarbital-anesthetized dogs); set-up: species or system dog
Experimental: The duration of β-blockage was determined in vivo using pentobarbital-anesthetized dogs instrumented for measurement of heart rate using a Beckman cardiotachometer triggered electronically by a phasic aortic blood pressure signal. Both vagus nerves were severed in the cervical region and the animals were mechanically ventilated. The experimental design used employed a 3-hour infusion of test compound. Bolus doses of isoproterenol (0.5 μg/kg) were used to assess the degree of β-blockage and recovery from β-blockage after […] of the infusion. The doses were spaced at 10-minute intervals and were given before, during and following the infusion of test compounds. The infusion rate was adjusted so that at the end of the 3-hour infusion period the degree of isoproterenol inhibition averaged about 50% of control. Following termination of blocker infusion, percent recovery from β-blockade was computed and the time associated with 80% recovery estimated.

T1 sequence (H0W3H1 1-470): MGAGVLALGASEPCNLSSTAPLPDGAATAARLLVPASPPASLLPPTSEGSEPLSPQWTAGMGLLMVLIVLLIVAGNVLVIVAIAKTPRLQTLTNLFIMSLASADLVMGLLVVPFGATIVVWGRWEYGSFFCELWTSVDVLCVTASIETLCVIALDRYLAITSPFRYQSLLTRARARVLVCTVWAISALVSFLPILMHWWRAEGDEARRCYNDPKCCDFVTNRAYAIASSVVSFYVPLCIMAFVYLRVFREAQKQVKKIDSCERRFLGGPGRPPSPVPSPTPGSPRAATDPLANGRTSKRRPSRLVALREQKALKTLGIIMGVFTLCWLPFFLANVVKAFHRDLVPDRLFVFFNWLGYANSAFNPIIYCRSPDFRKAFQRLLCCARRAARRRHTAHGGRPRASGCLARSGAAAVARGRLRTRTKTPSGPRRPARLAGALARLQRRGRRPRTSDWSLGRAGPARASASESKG

pA2 Atria [1] | Kb [1] | Structure (SMILES) | also measured
6.0 | – | Cc1cc(O)c(O)cc1COCC(O)CNC(C)(C)C (stereo not drawn) [Compound 4c] | –
7.0 | – | CC(C)(C)NCC(O)COCc1cc(O)c(O)cc1F (stereo not drawn) [Compound 4b] | –
– | 200 nM | CC(C)(CNC(=O)C1CCCCC1)NCC(O)COCc1cc(O)cc(O)c1 (stereo not drawn) [Compound 5e] | –
6.5 | – | CC(C)(C)NCC(O)COCc1ccc(O)c(O)c1 (stereo not drawn) [Compound 4a] | In Vivo Potency ([2]; anesthetized dogs, infusion rate adjusted to about 50% isoproterenol inhibition at end of 3-hour infusion): 112 mcg/k/m; In Vivo % I ([2]; isoproterenol inhibition (isoproterenol 0.5 μg/kg bolus), dogs, 3-hour infusion at the listed potency rate): 45%; DOA (Time for rec. in min.) 50% ([2]; time to 50% recovery from β-blockade after termination of 3-hour infusion, dogs): 5 min; DOA (Time for rec. in min.) 80% ([2]; time to 80% recovery from β-blockade after termination of 3-hour infusion, dogs, estimated): 16 min
– | 316 nM | CC(C)(C)NCC(O)COCc1cc(O)cc(O)c1 (stereo not drawn) [Compound 5a] | –
– | 1000 nM | CC(C)(C)NCC(O)COCc1cc(O)c(O)c(O)c1 (stereo not drawn) [Compound 5b] | –
– | 79.4 nM | CC(C)(CNC(=O)c1ccccc1)NCC(O)COCc1cc(O)cc(O)c1 (stereo not drawn) [Compound 5d] | –
– | 79.4 nM | CC(C)C(=O)NCC(C)(C)NCC(O)COCc1cc(O)cc(O)c1 (stereo not drawn) [Compound 5c] | –
